The values that follow come from patent US12171806B2, “Therapeutic regimens and methods for lowering blood glucose and/or body weight using GLP-1R and GCGR balanced agonists” (priority 2021, dated 2024).

The conditions of test [1]: in 6 weeks; cited from earlier work.
For test [2] the following is noted: over 26 weeks; cited from earlier work.
Test [3] has as its target T1, glucagon (human, cloned into CHO cells) receptor (Homo sapiens, UniProt P47871).
T1 construct: host or cells: CHO cells
Kind of test: cAMP stimulation cellular assay (DiscoveRx LeadHunter), glucagon receptor. It counts as cell-based. To be noted: 0.1% BSA.

Structures are written as SMILES. pEC50: −log10 of the molar value.

T1 sequence (P47871 26-477): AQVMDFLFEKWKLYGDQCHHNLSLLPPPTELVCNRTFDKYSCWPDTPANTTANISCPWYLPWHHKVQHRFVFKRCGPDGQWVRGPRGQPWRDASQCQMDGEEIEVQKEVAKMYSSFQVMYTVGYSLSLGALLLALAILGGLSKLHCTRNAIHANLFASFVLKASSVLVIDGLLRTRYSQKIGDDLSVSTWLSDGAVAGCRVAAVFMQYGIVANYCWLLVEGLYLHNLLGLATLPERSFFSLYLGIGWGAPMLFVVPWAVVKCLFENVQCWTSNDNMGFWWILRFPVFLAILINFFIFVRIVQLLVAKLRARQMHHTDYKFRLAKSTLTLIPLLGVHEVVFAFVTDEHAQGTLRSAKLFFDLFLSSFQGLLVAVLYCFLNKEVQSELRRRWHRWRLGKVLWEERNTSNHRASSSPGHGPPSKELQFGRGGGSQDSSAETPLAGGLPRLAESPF

As to `CCCCCCCCCCCCCCCC(=O)N[C@@H](CCC(=O)NCCCC[C@H](NC(=O)[C@H](CC(=O)O)NC(=O)[C@H](CO)NC(=O)[C@@H](NC(=O)[C@H](Cc1ccccc1)NC(=O)[C@@H](NC(=O)CNC(=O)[C@H](CCC(N)=O)NC(=O)[C@H](CO)NC(=O)[C@@H](N)Cc1c[nH]cn1)[C@@H](C)O)[C@@H](C)O)C(=O)N[C@@H](CO)C(=O)N[C@@H](CCC(=O)O)C(=O)N[C@@H](Cc1ccc(O)cc1)C(=O)N[C@@H](CC(C)C)C(=O)N[C@@H](CC(=O)O)C(=O)N[C@@H](CO)C(=O)N[C@@H](CCC(=O)O)C(=O)N[C@@H](CCCNC(=N)N)C(=O)N[C@@H](C)C(=O)N[C@@H](CCCNC(=N)N)C(=O)N[C@@H](CC(=O)O)C(=O)N[C@@H](Cc1ccccc1)C(=O)N[C@H](C(=O)N[C@@H](C)C(=O)N[C@@H](Cc1c[nH]c2ccccc12)C(=O)N[C@@H](CC(C)C)C(=O)N[C@@H](CCC(=O)O)C(=O)N[C@@H](C)C(=O)NCC(=O)NCC(=O)O)C(C)C)C(=O)O` [cotadutide], in test [1], the “reduction in liver fat content / hepatic fat fraction” value is 39%. Further, the weight loss in test [2] was 5.4%. In turn, `CC[C@H](C)[C@H](NC(=O)[C@H](Cc1ccccc1)NC(=O)[C@H](CCC(=O)O)NC(=O)[C@@H]1CCCCNC(=O)CC[C@H](NC(=O)[C@H](CC(=O)O)NC(=O)[C@H](CC(C)C)NC(=O)[C@H](Cc2ccc(O)cc2)NC(=O)[C@H](CCCCN)NC(=O)[C@H](CO)NC(=O)[C@H](Cc2ccc(O)cc2)NC(=O)[C@H](CC(=O)O)NC(=O)[C@H](CO)NC(=O)[C@@H](NC(=O)[C@H](Cc2ccccc2)NC(=O)[C@@H](NC(=O)CNC(=O)[C@H](CCC(N)=O)NC(=O)C(C)(C)NC(=O)[C@@H](N)Cc2c[nH]cn2)[C@@H](C)O)[C@@H](C)O)C(=O)N[C@@H](CCC(N)=O)C(=O)N[C@@H](C)C(=O)N[C@@H](C)C(=O)N1)C(=O)N[C@@H](CCCCNC(=O)[C@H]1O[C@@H](OCCCCCCCCCCCCCCCCCC(=O)O)[C@H](O)[C@@H](O)[C@@H]1O)C(=O)N[C@@H](Cc1c[nH]c2ccccc12)C(=O)N[C@@H](CC(C)C)C(=O)N[C@@H](CC(C)C)C(=O)N[C@@H](CCC(N)=O)C(=O)N[C@H](C(N)=O)[C@@H](C)O` [EU-A1872] had a pEC50 in test [3] of 8.58.

The term pEC50 denotes the negative decadic logarithm of the EC50, by convention in mol/L. Read a high pEC50 as a low EC50.
